Experimental data reported in ChEMBL document CHEMBL1641505, “17β-HSD2 inhibitors for the treatment of osteoporosis: Identification of a promising scaffold” (Bioorg Med Chem, 2011).

Experiments:
[1] = molecular target: T1, 17-beta-hydroxysteroid dehydrogenase type 2 (Homo sapiens) (UniProt P37059); test: Inhibition of [3H]E2 binding to human placental 17beta-HSD2 at 1 uM after 20 mins
T1 sequence (whole entry): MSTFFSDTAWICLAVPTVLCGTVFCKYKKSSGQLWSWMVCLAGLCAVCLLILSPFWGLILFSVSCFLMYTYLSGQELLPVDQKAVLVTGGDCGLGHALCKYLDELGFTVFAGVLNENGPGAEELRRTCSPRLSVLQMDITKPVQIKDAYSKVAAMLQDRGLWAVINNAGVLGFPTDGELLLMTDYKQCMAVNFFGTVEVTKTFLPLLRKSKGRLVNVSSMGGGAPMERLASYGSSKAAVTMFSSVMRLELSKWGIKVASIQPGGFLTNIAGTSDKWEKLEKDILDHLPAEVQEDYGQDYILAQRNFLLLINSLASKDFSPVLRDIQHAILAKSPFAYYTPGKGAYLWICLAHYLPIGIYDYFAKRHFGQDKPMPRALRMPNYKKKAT

[2] = molecular target: T2, 17-beta-hydroxysteroid dehydrogenase type 1 (Homo sapiens) (UniProt P14061); test: Inhibition of [3H]E1 binding to human placental 17beta-HSD1 at 1 uM after 20 mins
T2 sequence (whole entry): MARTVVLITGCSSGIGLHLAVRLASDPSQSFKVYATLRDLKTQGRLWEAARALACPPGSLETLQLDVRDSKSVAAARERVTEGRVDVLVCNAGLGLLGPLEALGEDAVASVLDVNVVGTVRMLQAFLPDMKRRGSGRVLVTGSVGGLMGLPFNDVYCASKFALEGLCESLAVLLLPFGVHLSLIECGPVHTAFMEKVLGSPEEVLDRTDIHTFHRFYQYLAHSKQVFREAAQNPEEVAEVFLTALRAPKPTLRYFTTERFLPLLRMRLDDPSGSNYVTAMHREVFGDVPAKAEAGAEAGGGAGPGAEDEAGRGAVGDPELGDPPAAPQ

Homo sapiens = organism: Homo sapiens; test: Selectivity ratio of IC50 for human placental 17beta-HSD1 to IC50 for human placental 17beta-HSD2
[3] = molecular target: T3, Estrogen receptor (Homo sapiens) (UniProt P03372); test: Displacement of [3H]E2 from human recombinant ERalpha by liquid scintillation counting relative to estradiol
T3 sequence (whole entry): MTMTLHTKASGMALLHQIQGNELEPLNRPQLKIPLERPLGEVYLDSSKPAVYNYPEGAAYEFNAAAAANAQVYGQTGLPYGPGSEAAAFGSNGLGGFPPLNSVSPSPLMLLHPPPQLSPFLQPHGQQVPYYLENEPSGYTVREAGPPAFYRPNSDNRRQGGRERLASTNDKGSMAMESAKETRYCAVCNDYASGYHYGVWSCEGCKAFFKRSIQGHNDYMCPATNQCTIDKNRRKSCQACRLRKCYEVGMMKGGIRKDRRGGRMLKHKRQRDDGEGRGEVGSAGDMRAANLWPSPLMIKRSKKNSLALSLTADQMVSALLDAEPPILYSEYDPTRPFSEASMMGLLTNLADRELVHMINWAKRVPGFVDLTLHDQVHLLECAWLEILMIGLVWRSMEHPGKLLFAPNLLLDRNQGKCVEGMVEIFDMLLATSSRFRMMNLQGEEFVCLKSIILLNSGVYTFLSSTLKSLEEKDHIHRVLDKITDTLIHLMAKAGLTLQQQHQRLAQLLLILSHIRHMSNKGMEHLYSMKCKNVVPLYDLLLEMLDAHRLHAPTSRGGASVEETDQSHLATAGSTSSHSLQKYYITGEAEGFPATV

[4] = molecular target: Estrogen receptor beta (Homo sapiens) (UniProt Q92731); test: Displacement of [3H]E2 from human recombinant ERbeta by liquid scintillation counting relative to estradiol
Sequence of Estrogen receptor beta (Homo sapiens) (Q92731 whole entry): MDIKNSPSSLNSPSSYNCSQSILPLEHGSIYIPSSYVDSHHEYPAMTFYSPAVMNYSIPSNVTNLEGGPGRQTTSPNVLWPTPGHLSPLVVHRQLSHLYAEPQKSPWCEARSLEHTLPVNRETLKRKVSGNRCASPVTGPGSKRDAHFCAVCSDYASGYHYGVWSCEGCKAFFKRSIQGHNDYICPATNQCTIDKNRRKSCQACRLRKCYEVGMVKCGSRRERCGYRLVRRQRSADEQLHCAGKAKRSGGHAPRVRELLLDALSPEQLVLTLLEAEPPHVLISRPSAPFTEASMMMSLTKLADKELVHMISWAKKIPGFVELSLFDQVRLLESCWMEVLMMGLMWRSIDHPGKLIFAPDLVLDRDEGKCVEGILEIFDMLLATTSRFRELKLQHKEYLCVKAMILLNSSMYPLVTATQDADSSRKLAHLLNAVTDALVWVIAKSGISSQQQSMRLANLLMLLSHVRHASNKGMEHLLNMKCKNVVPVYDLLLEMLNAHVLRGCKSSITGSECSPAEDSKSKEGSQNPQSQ

[5] = molecular target: T4, 17-beta-hydroxysteroid dehydrogenase type 2 (Homo sapiens, UniProt P37059); test: Inhibition of [3H]E2 binding to human placental 17beta-HSD2 after 20 mins
T4 sequence (P37059 whole entry): T1 sequence (whole entry)

[6] = molecular target: T5, 17-beta-hydroxysteroid dehydrogenase type 1 (Homo sapiens, UniProt P14061); test: Inhibition of [3H]E1 binding to human placental 17beta-HSD1 after 20 mins
T5 sequence (P14061 whole entry): T2 sequence (whole entry)

| inhibition [1] | inhibition [2] | SMILES | other results |
| --- | --- | --- | --- |
| 74% | 20% | Oc1ccc(-c2ccc3c(O)cccc3c2)cc1 | Ratio IC50 (Homo sapiens): 8; Activity [3]: 5%; Activity [4]: 5% |
| 13% | 15% | O=[N+]([O-])c1ccc(-c2ccc3c(O)cccc3c2)cc1 |  |
| 31% | 14% | OCc1ccc(-c2ccc3c(O)cccc3c2)cc1 |  |
| < 10% | < 10% | Oc1cccc2cc(-c3cncnc3)ccc12 |  |
| 20% | < 10% | Oc1cccc2cc(-c3ccccc3)ccc12 |  |
| 13% | < 10% | CNC(=O)c1ccc(-c2ccc3c(O)cccc3c2)cc1 |  |
| 32% |  | Oc1cccc(-c2ccc3c(O)cccc3c2)c1 |  |
| 16% | < 10% | O=C(O)c1ccc(-c2ccc3c(O)cccc3c2)cc1 |  |
| 26% | < 10% | Oc1cccc2cc(-c3ccncc3)ccc12 |  |
| < 10% | < 10% | Oc1cccc2cc(-c3ccc(F)cc3)ccc12 |  |
| 64% | 12% | CC(=O)Nc1cccc(-c2ccc3c(O)cccc3c2)c1 | IC50 [5]: 696 nM; IC50 [6]: 8520 nM; Ratio IC50 (Homo sapiens): 12 |
| 12% | 16% | N#Cc1ccc(-c2ccc3c(O)cccc3c2)cc1 |  |
| < 10% | < 10% | COc1ccncc1-c1ccc2c(O)cccc2c1 |  |
| 20% | 28% | COc1ccc(-c2ccc3c(O)cccc3c2)cc1 |  |
| < 10% | 16% | CC(=O)c1ccc(-c2ccc3c(O)cccc3c2)cc1 |  |
| 13% | < 10% | Oc1cccc2cc(-c3ccoc3)ccc12 |  |

Second part, the molecule before the results:

| SMILES | inhibition [1] | inhibition [2] | other results |
| --- | --- | --- | --- |
| CN(C(=O)c1ccccc1)c1cccc(-c2ccc(CO)cc2)c1 | < 10% | < 10% |  |
| CS(=O)(=O)Nc1ccc(-c2ccc(O)cc2)cc1 | < 10% | < 10% |  |
| COc1ccc(C(=O)N(C)c2cccc(-c3ccc(OC)cc3)c2)cc1 | 20% | < 10% |  |
| CNC(=O)c1cccc(-c2ccc3c(O)cccc3c2)c1 | 43% | < 10% |  |
| Oc1ccc2cc(-c3ccccc3O)ccc2c1 | < 10% |  |  |
| CN(C(=O)c1ccccc1)c1cccc(-c2ccc(O)cc2)c1 | 46% | < 10% |  |
| CS(=O)(=O)Nc1ccc(-c2ccc(CO)cc2)cc1 | < 10% | < 10% |  |
| COc1ccc(CC(=O)N(C)c2cccc(-c3ccc(CO)cc3)c2)cc1 | < 10% | < 10% |  |
| O=C(Nc1cccc(-c2ccc(O)cc2)c1)c1ccccc1 | < 10% | < 10% |  |
| COc1cccc(C(=O)N(C)c2cccc(-c3ccc(CO)cc3)c2)c1 | 15% | < 10% |  |
| CC(=O)Nc1cccc(-c2ccc(O)cc2)c1 | < 10% | < 10% |  |
| Cc1cccc(S(=O)(=O)Nc2ccc(-c3ccc(CO)cc3)cc2)c1 | 12% | < 10% |  |
| O=C(Nc1cccc(-c2ccc3c(O)cccc3c2)c1)c1ccccc1 | < 10% | < 10% |  |
| Oc1cccc(-c2ccc3cc(O)ccc3c2)c1 |  | 100% | Ratio IC50 (Homo sapiens): 0.02 |
| COc1ccc(-c2cccc(N(C)C(=O)Cc3cccc(OC)c3)c2)cc1 | < 10% | < 10% |  |
| COc1ccc(C(=O)N(C)c2cccc(-c3ccc(CO)cc3)c2)cc1 | 14% | < 10% |  |
| COc1cccc(CC(=O)N(C)c2cccc(-c3ccc(CO)cc3)c2)c1 | 12% | < 10% |  |
| CC(=O)Nc1cccc(-c2ccc(CO)cc2)c1 | < 10% | < 10% |  |
| COc1ccc(CC(=O)N(C)c2cccc(-c3ccc(OC)cc3)c2)cc1 | 10% | 25% |  |
| CS(=O)(=O)Nc1cccc(-c2ccc3c(O)cccc3c2)c1 | 22% | 19% |  |
| Oc1ccc2cc(-c3ccccc3)ccc2c1 | 17% | 44% |  |
| Oc1cccc(-c2ccc3ccccc3c2)c1 | 12% |  |  |
| CS(=O)(=O)Nc1ccc(-c2ccc3c(O)cccc3c2)cc1 | 75% | 52% | IC50 [5]: 600 nM; IC50 [6]: 614 nM; Ratio IC50 (Homo sapiens): 1 |
| Cc1cccc(S(=O)(=O)Nc2ccc(-c3ccc(O)cc3)cc2)c1 | 14% | < 10% |  |
| O=C(Nc1cccc(-c2ccc(CO)cc2)c1)c1ccccc1 | < 10% | < 10% |  |
| CN(C(=O)Cc1cccc(O)c1)c1cccc(-c2ccc(O)cc2)c1 |  | < 10% |  |
| COc1ccc(-c2cccc(N(C)C(=O)c3cccc(OC)c3)c2)cc1 | 13% | 16% |  |
| CNS(=O)(=O)c1ccc(-c2ccc3c(O)cccc3c2)cc1 | 57% | 12% |  |
